Patent US20180094139A1 (priority 2014, published 2018)

Tests used:
BlaC = BlaC (Mycobacterium tuberculosis, UniProt P9WKD3); type: biochemical
[1] = tested on: β-lactamase-expressing bacteria; type: cell-based
[2] = Stability of fluorogenic probes in MES buffer (spontaneous hydrolysis); type: physicochemical; conditions: 0.1 M, pH 6.6, room temperature (22° C.)
[3] = tested on: K. pneumoniae with Class A carbapenemase KPC; type: cell-based; conditions: 10^5 c.f.u., probe 10 μM, 3 h incubation
[4] = tested on: penicillinase isolated from Bacillus cereus (Pen); conditions: probe 10 μM, 3 h incubation with diluted Pen
Description: Data were collected in a 384-well plate with a total volume of 25 μL in each well. Fluorescence was measured with excitation at 490 nm and emission at 535 nm. Relative fluorescence represents the difference in fluorescence intensity with and without β-lactamase incubation. […] Error bars are ±SD.

[5] = tested on: E. cloacae with AmpC β-lactamase; type: cell-based; conditions: 10^5 c.f.u., probe 10 μM, 3 h incubation

BlaC, sequence (P9WKD3 35-307 limits assumed): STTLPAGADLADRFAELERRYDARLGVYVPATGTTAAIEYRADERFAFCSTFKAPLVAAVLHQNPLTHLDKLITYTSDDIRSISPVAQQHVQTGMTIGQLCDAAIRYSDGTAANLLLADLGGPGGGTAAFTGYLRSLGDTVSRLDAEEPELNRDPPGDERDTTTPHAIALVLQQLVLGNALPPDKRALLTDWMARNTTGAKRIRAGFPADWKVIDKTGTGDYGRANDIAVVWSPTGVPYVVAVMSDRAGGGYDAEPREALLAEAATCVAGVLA

| SMILES | catalytic efficiency (kcat/Km) for BlaC over TEM-1 Bla (BlaC) | fluorescence signal with β-lactamase-expressing bacteria (specificity) [1] | spontaneous hydrolysis rate [2] [s⁻¹] | fluorescent intensity ratio IKPC/IBlaC [3] | activity towards penicillinase (Pen) [4] | fluorescent intensity ratio of AmpC to BlaC (IAmpC/IBlaC) [5] |
| --- | --- | --- | --- | --- | --- | --- |
| O=C(Cc1ccccc1)N[C@@H]1C(=O)N2C(C(=O)O)=C(COc3ccc4ccc(=O)oc4c3)C3(CC3)S[C@H]12 [CDC-Cp, (6R,7R)-3-(((2-oxo-2H-chromen-7-yl)oxy)methyl)-7-(2-phenylacetamido)-2-azaspiro[2,1′-cyclopropane]-3-cephem-2-carboxylic acid] | around 10 fold |  |  |  |  |  |
| CO[C@@]1(NC(=O)Cc2ccccc2)C(=O)N2C(C(=O)O)=C(COc3ccc4ccc(=O)oc4c3)C3(CC3)S[C@@H]21 [CDC-OMe-Cp, (6R,7S)-7-methoxy-3-(((2-oxo-2H-chromen-7-yl)oxy)methyl)-7-(2-phenylacetamido)-2-azaspiro[2,1′-cyclopropane]-3-cephem-4-carboxylic acid] | 6.3×10^4 fold |  |  |  |  |  |
| COc1ccc(-c2c3ccc(=O)cc-3oc3cc(OCc4ccc(OCC5=C(C(=O)O)N6C(=O)[C@@H](NC(=O)Cc7ccccc7)[C@H]6SC5)cc4)ccc23)c(C)c1 [CDG-1] |  | fluorescent signal turn-on with all bacteria |  |  |  |  |
| COc1ccc(-c2c3ccc(=O)cc-3oc3cc(OCc4ccc(OCC5=C(C(=O)O)N6C(=O)[C@](NC(=O)Cc7ccccc7)(OC)[C@H]6SC5)cc4)ccc23)c(C)c1 [CDG-OMe] | 8,900 fold | much better selectivity for BlaC over other β-lactamase expressing bacteria | 1.9e-07 | 1/4 | some activity | 1/9 |
